Test results reported in paper doi:10.1101/2023.08.28.23294750v1 (medrxiv, 2023).

Each compound was assayed against T1, SARS-CoV-2 3CL^pro (Severe acute respiratory syndrome coronavirus 2, UniProt P0DTD1) (assay: FRET assay, fluorogenic peptide cleavage). Conditions: read-out: % inhibition at 100 μmol/L.
Format: biochemical

| Structure (SMILES) | inhibition at 100 µM [%] |
| --- | --- |
| COc1cc([C@H]2OC[C@H]3[C@@H]2CO[C@H]3c2ccc(OC)c(OC)c2)ccc1O [phillygenin] | < 50 |
| COc1c(O)cc(C(=O)O)cc1O [M42M2, 4-O-methylgallic acid] | < 50 |
| O=C1c2cccc(O)c2C(=O)c2c(O)cc(CO)cc21 [compound 11, aloe-emodin] | < 50 |
| OCCc1ccc(O)c(O)c1 [hydroxytyrosol] | < 50 |
| O=C(O)c1cc(O)c(O)c(O)c1 [compound 42, gallic acid] | < 50 |

What follows are compounds tested against T1, SARS-CoV-2 3CL^pro (assay: FRET assay, fluorogenic peptide cleavage). Conditions: not given.
Format: biochemical

| Structure (SMILES) | IC50 [µM] |
| --- | --- |
| O=C(O)c1cc(O)c2c(c1)C(=O)c1cccc(O)c1C2=O [compound 3, rhein] | 4.6 |
| Cc1c(C(=O)O)c(O)cc2c1C(=O)c1c(O)cccc1C2=O [compound 10, 3,8-dihydroxy-1-methylanthraquinone-2-carboxylic acid] | 37.2 |
